Source: patent US4282111A (Betz Laboratories, Inc., priority 1980, dated 1981)

Columns and labels:
[1] = background, cited from earlier work
[2] = oxygen scavenging in stainless steel hot water flow system at elevated temperature and pressure (Example 1); settings: for % O2 Removed: 78±3°C, 4±1 psig, 4±0.2 min contact, feedwater: hydrazine 96 ppm pH 10.3 O2 1.8 ppm (average of 9 runs), hydroquinone 100 ppm pH 8.9 O2 2.3 ppm, p-phenylenediamine 69 ppm pH 10.9 O2 2.0 ppm, o-phenylenediamine 58 ppm pH 10.2 O2 2.0 ppm, resorcinol 90 ppm pH 9.8 O2 1.8 ppm, values below 20% may be artifacts; for oxygen scavenging in the test water (in words): conclusion from TABLE 1
Procedure: In a first series of tests, the oxygen scavenging efficacies of various materials were evaluated under conditions of elevated temperature and pressure. The test apparatus used was essentially a stainless steel hot water flow system equipped with appropriate monitoring instrumentation. Demineralized feedwater, adjusted to the appropriate pH and initial dissolved oxygen level (controlled by nitrogen sparging), was pumped from a reservoir at ambient temperature into a once-through heater. Temperature was monitored continuously by means of thermocouples at several locations along the length of the flow tubing. A solution containing the oxygen scavenger test material was loaded into a pump driven syringe and fed continuously to the heated flow stream through a port containing a stainless steel ribbon mixing baffle. The feedwater containing dissolved oxygen and the test material then traversed the flow tubing via a by-pass comprising an additional length of coiled tubing. Contact (or reaction) time of the test material and dissolved oxygen was governed by the choice of coil length. The tendency of the temperature to drop during residence in the coiled tubing was offset by the use of thermostatted heating tapes which maintained the temperature in this tubing at 78°±3°C. Upon exiting the coiled tubing, the stream flowed through a sample cooler to render the temperature of the liquid compatible with the operating range of a membrane-type dissolved oxygen probe. The cooled liquid was analyzed for dissolved oxygen via a D.O. flow cell, and pH was potentiometrically monitored in the flow tube immediately downstream of the D.O. probe. Outputs of the temperature, pH and dissolved oxygen probes during operation were monitored via strip chart recorders. The final destination of the reaction mixture was a reservoir which could be drained for analysis of reaction products, if desired.
Temperature in the system could be maintained at 78°±3° C. under 4±1 psig. Residence time of the feedwater in the flow tube from chemical feed point to D.O. flow cell outlet was 4±0.2 minutes. Approximately 3.5 minutes of this total was spent in a 40' length of 0.402 inch i.d. coiled tubing. Entry into and residence in the sample cooler accounted for 0.5 minute of the total contact time.
According to an article by J. W. Cohn and R. E. Powell, Jr., J. Amer.
The test solutions were prepared by initially mixing 10 grams of test material and 90 grams of demineralized water in glass bottles and allowing the mixture to remain in a shaker for several hours. If complete dissolution for a given material was observed after shaking, the pH of the solution was measured. When the pH of the solution was below 10.0, 7 N sodium hydroxide was added dropwise until this value was reached. The quantity of added sodium hydroxide was recorded and later used in corrections for the active concentration of the solution. When the pH value of a stock solution was above pH 10.0 without requiring the addition of caustic, the solution was not further modified.
Results of these tests are reported in TABLE 1 below in terms of percent oxygen removed from the test stream. The precision of the initial and final dissolved oxygen values reported is approximately ±10%. […] The experimental uncertainties decrease with increasing values of percent dissolved oxygen removal.

[3] = oxygen scavenging in feedwater of a working boiler (Example 2)
Procedure: In order to compare the performance of hydroquinone with that of hydrazine under field-type conditions, a series of experiments were conducted on the feedwater of a working boiler. The test materials were fed to the deaerator storage tank, and the resultant change, if any, in dissolved oxygen level was measured on a sample flowing from the feedwater line through a membrane-type dissolved oxygen probe.
During the tests, a relatively wide range of experimental conditions was encountered among the test parameters, reflecting the difficulty of attempting to obtain precise data during experiments performed on a working boiler.
In order to provide some point of reference for judging oxygen scavenging efficacies while taking into account the diverse conditions experienced on a daily basis, hydrazine control runs were performed, whenever possible, under feedwater and boiler conditions similar to those encountered during testing of other test materials. The hydrazine control runs are reported below in TABLE 3 also in terms of % oxygen removal.

[4] = background; cited from earlier work
[5] = low temperatures such as room temperature; background; cited from earlier work
[6] = thermal decomposition of aqueous solutions in autoclaves (Example 5); settings: hydrazine 60 ppm, 435 psig, 450 °F, 4 hours
Procedure: The aqueous solutions (approximately 50-60 ppm in demineralized water) were subjected to specified temperature and pressure conditions for 4 hours prior to chemical analysis.

[7] = Cohn and Powell, J. Amer. Chem. Soc., 76, 2568 (1954); cited from earlier work
[8] = for % O2 Removed, 1 Minute: hydroquinone: pH 8.6, 22.5 °C, 0.94 mol/mol O2, initial O2 7.7 ppm
Text: The test apparatus basically consisted of a 1 liter three-necked flask fitted with a dissolved oxygen probe and a pH electrode. The intent of this apparatus was to show reaction kinetics differences rather than precise measurements (within seconds) of reaction times.
The flask was filled with deionized water which had been stripped of some dissolved oxygen by bubbling nitrogen through a diffuser stone. The pH was adjusted to the desired level with sodium hydroxide. The flask was sealed with a rubber septum, the dissolved oxygen probe and an inlet stopper. A magnetic stirrer bar was left in the flask for mixing. The mixer was turned on, and dissolved oxygen and temperature readings were recorded until the dissolved oxygen reached a constant value. Next, the appropriate quantity of additive was injected through the septum using a hypodermic syringe. The initial mole ratio of treatment to dissolved oxygen was determined by weighing feed chemical and measuring the oxygen concentration. […] Dissolved oxygen and temperature readings were then taken at appropriate time intervals.

test rats = settings: conclusion from TABLE 4; cited from earlier work
[9] = hydrazine: pH 9.2, 26.5 °C, 10.5 mol/mol O2, initial O2 0.87 ppm

## O=S([O-])[O-].[Na+].[Na+] [sodium sulfite]
[1]; at high pressures
  decomposition in the boiler (in words): decomposes in the boiler to form sulfur dioxide and hydrogen sulfide

## Nc1ccc(N)cc1 [p-phenylenediamine]
[2]
  % O2 Removed: 35%
  oxygen scavenging in the test water (in words): did not work as oxygen scavengers

## NN [hydrazine]
[3]; hydrazine control run 1: 1.6 ppm actives, pH 8.8, steam load 11 (1000 lbs./hr.), initial O2 13.0 ppb
  % O2 Removed: 69%
[3]; hydrazine control run 2: 1.1 ppm actives, pH 9.4, steam load 15 (1000 lbs./hr.), initial O2 4.0 ppb
  % O2 Removed: 50%
[3]; hydrazine control run 3: 1.2 ppm actives, pH 8.6, steam load 15 (1000 lbs./hr.), initial O2 6.0 ppb
  % O2 Removed: 60%
[3]; hydrazine control run 4: 1.0 ppm actives, pH 8.8, steam load 15 (1000 lbs./hr.), initial O2 5.8 ppb
  % O2 Removed: 55%
[3]; hydrazine control run 5: 0.8 ppm actives, pH 9.4, steam load 11 (1000 lbs./hr.), initial O2 3.5 ppb
  % O2 Removed: 31%
[3]; hydrazine control run 6: 1.6 ppm actives, pH 9.6, steam load 14 (1000 lbs./hr.), initial O2 4.0 ppb
  % O2 Removed: 30%
[4]
  toxicity (in words): extreme toxicity and carcinogenicity
[5]
  rate of hydrazine-oxygen reaction (in words): very slow at low temperatures
[6]
  % Decomposition: 20%
[7]
  pH of maximum oxygen scavenging efficacy in solution: 10.0-10.5
[1]; to nitrogen, hydrogen and ammonia
  temperature above which it decomposes: Above 400 °F
[2]
  % O2 Removed: 91 ± 4%
[8]; [9]
  % O2 Removed, 1 Minute: 1%
[8]; 5 minutes, hydrazine: pH 9.2, 26.5 °C, 10.5 mol/mol O2, initial O2 0.87 ppm
  % O2 Removed, 5 Minutes: 2%

## Nc1ccccc1N [o-phenylenediamine]
[2]
  % O2 Removed: 10%
  oxygen scavenging in the test water (in words): did not work as oxygen scavengers

## Oc1ccc(O)cc1 [hydroquinone]
Test rats
  toxicity compared to hydrazine (in words): significantly less toxic as compared to hydrazine
[3]; 1.9 ppm actives, pH 8.4, steam load 15 (1000 lbs./hr.), initial O2 8.0 ppb
  % O2 Removed: 88%
[3]; 1.9 ppm actives, pH 8.4, steam load 15 (1000 lbs./hr.), initial O2 10.0 ppb
  % O2 Removed: 90%
[3]; conclusion from TABLES 2 and 3
  efficacy in treating boiler feedwater (in words): compared favorably with hydrazine
[2]
  % O2 Removed: 97%
  oxygen scavenging in the test water (in words): at least equivalent to, if not better than, hydrazine
[8]; [9]
  % O2 Removed, 1 Minute: 29%
[8]; conclusion from TABLE 5, compared to hydrazine
  reactivity at low temperature with oxygen (in words): superiority of hydroquinone, as compared to hydrazine

## Oc1cccc(O)c1 [resorcinol]
[2]
  % O2 Removed: 0%
  oxygen scavenging in the test water (in words): did not work as oxygen scavengers
